In PubChem BioAssay (NCI):
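The compound was tested at five concentrations on cells cultured in 96-well plates, with a 48-hour exposure period. Abbreviation: GI50, concentration required for 50% inhibition of growth. TGI is the concentration that stops growth completely.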

Tests used:
Experiment in all cases: NCI tumour cell line growth inhibition, 48 h
[1] = test system: DLD-1 colon
[2] = test system: DMS 114 small cell lung
[3] = test system: HOP-18 NSCLC
[4] = test system: M19-MEL melanoma
[5] = test system: MALME-3M melanoma
[6] = test system: NCI/ADR-RES ovarian
[7] = test system: P388/ADR leukemia
[8] = test system: SN12K1 renal
[9] = test system: ACHN renal
[10] = test system: SR leukemia
[11] = test system: TK-10 renal
[12] = test system: BT-549 breast
[13] = test system: MDA-MB-231 breast
[14] = test system: MDA-MB-435
[15] = test system: MDA-N
[16] = test system: T-47D breast

Question: How did the TGI [1] turn out when `N#C[C@H](OC1OC(COC2OC(CO)C(O)C(O)C2O)C(O)C(O)C1O)c1ccccc1` (stereo partly specified) was run?
Answer: > 250 µM

Question: And the TGI [2]?
Answer: > 250 µM

Question: And the TGI [3]?
Answer: > 250 µM

Question: What about the TGI [4] of the same molecule?
Answer: > 250 µM

Question: What about the TGI [5] of the same molecule?
Answer: > 250 µM

Question: What about the TGI [6] of the same molecule?
Answer: > 250 µM

Question: And the TGI [7]?
Answer: > 158 µM

Question: What about the TGI [8] of the same molecule?
Answer: > 250 µM

Question: How did the TGI [9] turn out when `O=C(Nc1nc2ccc([N+](=O)[O-])cc2s1)C(=O)C(C(=O)c1ccccc1F)C1OC(=O)c2ccccc21` (stereo unspecified) was run?
Answer: > 100 µM

Question: What about the TGI [1] of the same molecule?
Answer: > 100 µM

Question: What about the TGI [2] of the same molecule?
Answer: 87.3 µM

Question: What about the TGI [4] of the same molecule?
Answer: > 100 µM

Question: And the TGI [10]?
Answer: 54.2 µM

Question: What about the TGI [11] of the same molecule?
Answer: > 100 µM

Question: What does the source list for `CCCNC(=O)C(C)C1CCC2(C)C=CC(=O)C(C)=C2C1O` (stereo unspecified)?
Answer: TGI [1]: > 100 µM; TGI [2]: > 100 µM; TGI [3]: > 100 µM; TGI [4]: > 100 µM; TGI [6]: > 100 µM; TGI [7]: > 100 µM; TGI [8]: > 100 µM

Question: Which results are given for `CCCc1c(-c2ccccc2)[nH]c2ccccc2c1=O`?
Answer: TGI [9]: > 100 µM; TGI [12]: > 100 µM; TGI [5]: > 100 µM; TGI [13]: > 100 µM; TGI [14]: > 100 µM; TGI [15]: > 100 µM; TGI [10]: > 100 µM; TGI [16]: 99.8 µM; TGI [11]: > 100 µM

Question: `CCN(CC)c1ccc2cc(C(=O)Nc3ccc4[nH]c(C(=O)N5C[C@@H](CCl)c6c5cc(OC(=O)Nc5ccccc5)c5[nH]cc(C)c65)cc4c3)oc2c1` was tested. Which GI50 [2] did it give?
Answer: 254 µM

Question: What about the TGI [2] of the same molecule?
Answer: > 1000 µM

Question: What about the GI50 [4] of the same molecule?
Answer: 237 µM

Question: What about the TGI [4] of the same molecule?
Answer: 922 µM

Question: What about the GI50 [5] of the same molecule?
Answer: 510 µM

Question: What about the TGI [5] of the same molecule?
Answer: > 1000 µM

Question: And the TGI [7]?
Answer: > 1000 µM

Question: What about the GI50 [8] of the same molecule?
Answer: 128 µM

Question: And the TGI [8]?
Answer: 387 µM

Question: With `O=C1C(Cl)=C(Nc2ccc(S(=O)(=O)O)cc2)C(=O)c2ccccc21` as the molecule, how does the TGI [9] read?
Answer: 45.8 µM

Question: And the TGI [12]?
Answer: > 100 µM

Question: What about the TGI [5] of the same molecule?
Answer: 36.9 µM

Question: And the TGI [13]?
Answer: > 100 µM

Question: What about the TGI [14] of the same molecule?
Answer: 39.6 µM

Question: And the TGI [6]?
Answer: > 100 µM

Question: What about the TGI [10] of the same molecule?
Answer: > 100 µM

Question: What about the TGI [11] of the same molecule?
Answer: 42.9 µM

Question: How did the TGI [9] turn out when `O=c1ssc(=Nc2ccccc2)n1-c1ccccc1` was run?
Answer: 31.1 µM

Question: And the TGI [5]?
Answer: > 100 µM

Question: What about the TGI [13] of the same molecule?
Answer: 60.5 µM

Question: And the TGI [14]?
Answer: > 100 µM

Question: What about the TGI [15] of the same molecule?
Answer: > 100 µM

Question: What about the TGI [6] of the same molecule?
Answer: 68.2 µM

Question: What about the TGI [10] of the same molecule?
Answer: 40.9 µM

Question: And the TGI [16]?
Answer: 39.1 µM

Question: And the TGI [11]?
Answer: > 100 µM

Question: `C=CC1(NC(=O)c2ccccc2)CCC(C(C)(C)C)CC1` (stereo unspecified) was tested. Which TGI [1] did it give?
Answer: > 100 µM

Question: What about the TGI [2] of the same molecule?
Answer: > 90.7 µM

Question: And the TGI [3]?
Answer: > 95.6 µM

Question: What about the TGI [4] of the same molecule?
Answer: 84.4 µM

Question: And the TGI [5]?
Answer: > 94.9 µM

Question: And the TGI [6]?
Answer: 76.1 µM

Question: And the TGI [7]?
Answer: > 77.4 µM

Question: What about the TGI [8] of the same molecule?
Answer: > 96.7 µM

Question: For `Nc1ccn(C2C=C(CO)C(O)C2O)c(=O)c1` (stereo unspecified), which TGI [1] is on record?
Answer: > 62.5 µM

Question: And the TGI [2]?
Answer: > 625 µM

Question: What about the TGI [3] of the same molecule?
Answer: > 625 µM

Question: And the TGI [4]?
Answer: > 625 µM

Question: What about the TGI [6] of the same molecule?
Answer: > 625 µM

Question: And the TGI [8]?
Answer: > 625 µM

Question: Which results are given for `COc1nc(=O)n(COC(CO)CN2C(=O)c3ccccc3C2=O)cc1Cc1cccc(OCc2ccccc2)c1` (stereo unspecified)?
Answer: TGI [9]: 59.8 µM; TGI [1]: > 100 µM; TGI [2]: 59.1 µM; TGI [3]: 72.5 µM; TGI [4]: 45.2 µM; TGI [11]: > 100 µM

Question: With `CN(C)CCCN1c2ccccc2Sc2ccc3ccccc3c21` as the molecule, how does the TGI [9] read?
Answer: 20.9 µM

Question: And the TGI [12]?
Answer: 26.3 µM

Question: And the TGI [5]?
Answer: 21.6 µM

Question: What about the TGI [13] of the same molecule?
Answer: 13.7 µM

Question: What about the TGI [14] of the same molecule?
Answer: 10.4 µM

Question: And the TGI [15]?
Answer: 15.1 µM

Question: What about the TGI [6] of the same molecule?
Answer: 22.5 µM

Question: What about the TGI [10] of the same molecule?
Answer: 3.84 µM

Question: What about the TGI [16] of the same molecule?
Answer: 5.65 µM

Question: And the TGI [11]?
Answer: 17.7 µM

Question: With `OCCNCCN1CCN(CCCN2c3ccccc3Sc3ccc(C(F)(F)F)cc32)CC1` as the molecule, how does the TGI [9] read?
Answer: 43.2 µM

Question: And the TGI [12]?
Answer: > 100 µM

Question: What about the TGI [5] of the same molecule?
Answer: 45 µM

Question: What about the TGI [13] of the same molecule?
Answer: 35.5 µM

Question: And the TGI [14]?
Answer: 33.7 µM

Question: What about the TGI [15] of the same molecule?
Answer: 33.7 µM

Question: And the TGI [6]?
Answer: 54.6 µM

Question: What about the TGI [10] of the same molecule?
Answer: > 100 µM

Question: What about the TGI [16] of the same molecule?
Answer: 50.4 µM

Question: What about the TGI [11] of the same molecule?
Answer: 37.2 µM

Question: Which TGI [9] does the source give for `O=C(O)c1cc2c(ncc3c(=O)n(-c4ccccc4)[nH]c32)s1` here?
Answer: > 100 µM

Question: What about the TGI [1] of the same molecule?
Answer: > 100 µM

Question: And the TGI [2]?
Answer: > 100 µM

Question: What about the TGI [3] of the same molecule?
Answer: > 100 µM

Question: What about the TGI [4] of the same molecule?
Answer: > 100 µM

Question: What about the TGI [5] of the same molecule?
Answer: > 100 µM

Question: What about the TGI [10] of the same molecule?
Answer: > 100 µM

Question: What about the TGI [11] of the same molecule?
Answer: > 100 µM

Question: For `CC(=O)Oc1cc2c(cc1OC(C)=O)OCC(c1ccccc1)C2` (stereo unspecified), which TGI [1] is on record?
Answer: 27.4 µM

Question: And the TGI [2]?
Answer: 32.3 µM

Question: And the TGI [3]?
Answer: 63.2 µM

Question: What about the TGI [4] of the same molecule?
Answer: 45.7 µM

Question: What about the TGI [5] of the same molecule?
Answer: 37.9 µM

Question: And the TGI [6]?
Answer: 134 µM

Question: What about the TGI [7] of the same molecule?
Answer: 11.7 µM

Question: And the TGI [8]?
Answer: 38.6 µM

Question: What does the source list for `Cc1ccc(C2OC(COCc3ccc(Cl)cc3)C(OCc3ccc(Cl)cc3)C2O)cc1` (stereo unspecified)?
Answer: TGI [9]: 41.8 µM; TGI [1]: 34.1 µM; TGI [2]: 22.2 µM; TGI [3]: > 100 µM; TGI [4]: 38.1 µM; TGI [10]: > 100 µM; TGI [11]: 29.7 µM

Question: With `O=C1OC2(CC1C1(O)C3CC4CC(C3)CC1C4)C1CC3CC(C1)CC2C3` (stereo unspecified) as the molecule, how does the TGI [9] read?
Answer: > 100 µM

Question: And the TGI [1]?
Answer: > 100 µM

Question: And the TGI [2]?
Answer: > 100 µM

Question: What about the TGI [3] of the same molecule?
Answer: 35.8 µM

Question: And the TGI [4]?
Answer: > 100 µM

Question: What about the TGI [5] of the same molecule?
Answer: > 100 µM

Question: What about the TGI [11] of the same molecule?
Answer: > 100 µM
